Measurements taken from article PMC4493701, “Quantitative and qualitative analysis of the novel antitumor 1,3,4-oxadiazole derivative (GLB) and its metabolites using HPLC-UV and UPLC-QTOF-MS” (Scientific Reports, 2015).
Like-named read-outs stand apart in the source and are kept apart here.

How the values were obtained:
[1] = Pharmacokinetic study in rats after single oral administration of GLB (HPLC-UV in plasma); type: in vivo, Sprague-Dawley rats; conditions: for concentration at 0.5 h / concentration at 1 h / concentration at 2 h / concentration at 4 h / concentration at 6 h / concentration at 8 h / concentration at 12 h / concentration at 24 h / concentration at 36 h / concentration at 48 h / concentration at 72 h / concentration at 96 h: oral; for concentration at 0.5 h: 0.5 h after single oral GLB 100 mg/kg; for concentration at 1 h: 1 h after single oral GLB 100 mg/kg; for concentration at 2 h: 2 h after single oral GLB 100 mg/kg; for concentration at 4 h: 4 h after single oral GLB 100 mg/kg; for concentration at 6 h: 6 h after single oral GLB 100 mg/kg; for concentration at 8 h: 8 h after single oral GLB 100 mg/kg; for concentration at 12 h: 12 h after single oral GLB 100 mg/kg; for concentration at 24 h: 24 h after single oral GLB 100 mg/kg; for concentration at 48 h: 48 h after single oral GLB 100 mg/kg; for concentration at 72 h: 72 h after single oral GLB 100 mg/kg; for concentration at 96 h: 96 h after single oral GLB 100 mg/kg; for Tmax / half-life / Cmax / AUC(0-inf) / AUC(0-t): rat plasma, single oral GLB 100 mg/kg; for AUC(0-t): read-out: AUC(0-96)
Experimental: The validated bioanalytical method was applied to the detection of GLB concentration in plasma after a single oral administration of GLB (100 mg/kg, n = 6) in rats. At 0.5 h after oral administration, the prototype drug of GLB was detected in rat plasma. The peak concentration of GLB was at 6 h (2.78 ± 0.89 μg/mL) with quantifiable at the 36 h (0.14 ± 0.18 μg/mL). At 96 h time point, low concentration of GLB was still detectable in rat plasma (Fig. 2B).
HPLC-UV analyses were performed with a DIONEX Ultimate 3000 HPLC system (Thermo Fisher Scientific, MA, USA), which included a double-ternary pump (DGP-3600SD), a temperature controlled automatic sampler (WPS-3000SL), a column temperature box (TCC-3000SD), and a ultraviolet (UV) detector (VWD-3400). The UV detection wavelength was set at 300 nm. The chromatographic separation was achieved on a reversed-phase Alltima C18 analytical column (150 mm × 4.6 mm; 5 μm), and the mobile phase was the mixture of acetonitrile and distilled water (65:35, v/v), running at the flow rate of 1.0 mL/min. The temperature of column box was kept at 25 °C. The injection volume was 20 μL. The HPLC data was processed using Chromeleon^TM 6.8 software (Thermo Fisher Scientific, MA, USA).
Sprague-Dawley rats (Male, 210 ± 20 g, 7–8 weeks) were provided by the Department of Experimental Animal, Beijing University (Beijing, China). Environmental controls for the animal room were set at 22 ± 3 °C with 50 ± 20% relative humidity. This animal study was performed in strict accordance with the recommendations in the Guide for the Care and Use of Laboratory Animals of China Association for Laboratory Animal Science. All animal care and experimental protocols were approved by the Animal Care Committee of Peking University Health Science Center. All sacrifice was performed under pentobarbitone anesthesia, and every effort was made to minimize suffering.
Rats were fasted 12 h prior to the study and were allowed access to food 4 h after oral dosing. Eighteen rats were divided randomly into six groups and rats were sampled at interval in each group. The blood samples at each time point were collected from six rats. The rats were dosed with a suspension of GLB (100 mg/kg, in 0.5% sodium carboxymethyl cellulose CMC-Na solution) and the blood samples were collected at the predose, 0.5, 1, 2, 4, 6, 8, 12, 24, 36, 48, 72 and 96 h post-dosing. The blood samples were centrifuged at 2800 rpm (1473 × g) for 20 min and the plasma was stored at −20 °C until analyzed.
The 400 μL plasma sample was transferred into a glass tube, followed by the addition of 25 μL of IS and 2 mL of extraction solvent ethyl acetate. The mixture was vortexed for 3 min to extract GLB and IS from plasma sample and then centrifuged at 2800 rpm (1473 × g) for 20 min. The upper organic phase was transferred into a glass tube. The sample was extracted twice with 2 mL of ethyl acetate for liquid-liquid extraction. The combined upper organic phases were evaporated to dryness at 37 °C under a gentle stream of nitrogen gas. The residue was reconstituted with 100 μL of methanol and was injected 20 μL into the HPLC system. In addition, in order to perform mass spectrometry analyses, the residue was reconstituted with 150 μL of methanol-water (v/v, 1:1), and then centrifuged at 14000 rpm (17968 × g) for 15 min, the upper liquid was transferred into sample vials and 10 μL was injected for UPLC-QTOF/MS analysis.
The pharmacokinetic parameters of GLB were calculated by a non-compartmental pharmacokinetic analysis method using Drug and Statistical Version 3.0 (DAS 3.0) software (the Mathematical Pharmacology Committee, Chinese Pharmacological Society, China). The maximum peak concentration of the drug in plasma (Cmax) and the time to reach the maximum concentration (Tmax) were estimated from the experimental data. The area under the plasma concentration-time curves from 0 to infinity (i.e., AUC0-∞) and from 0 to 96 h (AUC0-96) were calculated by the trapezoidal summation. […]

thymidine phosphorylase = conditions: cited from earlier work
[2] = tested on: human carcinoma cell lines including uterine cervix cancer cells, pulmonary adenocarcinoma cells, and prostate cancer cells (PC-3M); set-up: method as in earlier work; conditions: multiple human carcinoma cell lines; cited from earlier work
[3] = male, Sprague-Dawley, rat, plasma, 100 mg/kg, rat, M1/M2 relative to GLB standard curve
[4] = male, Sprague-Dawley, rat, plasma, 100 mg/kg, 36 h after single oral GLB 100 mg/kg, rat, M1/M2 relative to GLB standard curve
[5] = male, Sprague-Dawley, rat, plasma, po, 100 mg/kg, n = 6, read-out: Tmax
[6] = male, Sprague-Dawley, n = 6, M1/M2 relative concentrations from GLB standard curve

Compound `CC(=O)N1N=C(c2ccc(Br)cc2)OC12C1OC(C)(C)OC1COC21COC(C)(C)O1` (stereo not drawn) [GLB, Fructose-based 3-acetyl-2,3-dihydro-1,3,4-oxadiazole] has a Plasma concentration ([1]; 36 h after single oral GLB 100 mg/kg, rat, M1/M2 relative to GLB standard curve) of 140 ± 180 ng/mL, a concentration at 0.5 h [1, 3] of 43 ± 151 ng/mL and a concentration at 1 h [1, 3] of 673 ± 65 ng/mL. The concentration at 2 h [1, 3] was 1400 ± 210 ng/mL, the concentration at 4 h [1, 3] was 1460 ± 210 ng/mL and the concentration at 6 h [1, 3] was 2780 ± 887 ng/mL. The concentration at 8 h [1, 3] was 1600 ± 656 ng/mL, the concentration at 12 h [1, 3] was 1470 ± 672 ng/mL and the concentration at 24 h [1, 3] was 262 ± 241 ng/mL. It also gave a concentration at 36 h [1, 4] of 139 ± 183 ng/mL, a concentration at 48 h [1, 3] of 58 ± 63 ng/mL and a concentration at 72 h [1, 3] of 11 ± 5 ng/mL. For the same compound, the concentration at 96 h [1, 3] was 16 ± 17 ng/mL, the Tmax [1, 5] was 6 h and the half-life ([1]; male, Sprague-Dawley, n = 6) was 9.24 ± 4.74 h. It also gave a Cmax ([1]; male, Sprague-Dawley, n = 6, text, read-out: Cmax) of 2780 ± 890 ng/mL, an AUC(0-inf) [1, 6] of 33500 ± 9050 ng·h/mL and an AUC(0-t) [1, 6] of 33300 ± 9100 ng·h/mL. For the same compound, the Cmax ([1]; n = 6, M1/M2 relative concentrations from GLB standard curve) was 2780 ± 890 ng/mL, the Thymidine phosphorylase inhibition (thymidine phosphorylase) was “thymidine phosphorylase inhibitor” and the Effect on proliferation [2] was “inhibited proliferation”.

Compound `CC(=O)N1N=C(c2ccc(Br)cc2)OC1(C1OC(C)(C)OC1C(=O)O)C1(O)COC(C)(C)O1` (stereo not drawn) [M1] has a concentration at 0.5 h [1, 3] of 27 ± 14 ng/mL, a concentration at 1 h [1, 3] of 91 ± 21 ng/mL and a concentration at 2 h [1, 3] of 242 ± 55 ng/mL. The concentration at 4 h [1, 3] was 336 ± 59 ng/mL, the concentration at 6 h [1, 3] was 517 ± 113 ng/mL and the concentration at 8 h [1, 3] was 443 ± 137 ng/mL. For the same compound, the concentration at 12 h [1, 3] was 390 ± 114 ng/mL, the concentration at 24 h [1, 3] was 185 ± 182 ng/mL and the concentration at 36 h [1, 4] was 37 ± 15 ng/mL. For the same compound, the concentration at 48 h [1, 3] was 24 ± 20 ng/mL, the concentration at 72 h [1, 3] was 15 ± 9 ng/mL and the concentration at 96 h [1, 3] was 25 ± 11 ng/mL. It also gave a Tmax [1, 5] of 6 h, a half-life ([1]; male, Sprague-Dawley, n = 6) of 11.3 ± 5.94 h and an AUC(0-inf) [1, 6] of 10000 ± 3340 ng·h/mL. For the same compound, the AUC(0-t) [1, 6] was 9660 ± 3380 ng·h/mL, the Cmax ([1]; male, Sprague-Dawley, n = 6, M1/M2 relative concentrations from GLB standard curve, read-out: Cmax) was 540 ± 100 ng/mL and the Tmax ([1]; n = 6) was 7.33 ± 2.73 h.
